Values of other authors in article PMC6095934, “Impact of rifampicin-inhibitable transport on the liver distribution and tissue kinetics of erlotinib assessed with PET imaging in rats” (EJNMMI Research, 2018).

What was measured:
[1] = system: organic anion transporter 2 (OAT2, SLC22A7); conditions: in vitro
MRP2 (ABCC2) [2] = system: MRP2 (ABCC2); parameters: method as in PMID 23440558; conditions: canalicular side of hepatocytes
OAT1 [3] = system: OAT1
OAT3 [4] = system: OAT3
OCT2 [5] = system: OCT2; parameters: method as in PMID 21088257, PMID 26976869
OATP4C1 = system: OATP4C1; parameters: method as in PMID 28550055
human OATP2B1 [6] = system: human OATP2B1
[7] = system: organic cation transporter 1 (OCT1, SLC22A1)
[8] = NSCLC patients, 150 mg erlotinib once daily
human OATP2B1 [9] = conditions: in vitro, transfected cells
MRP2 (ABCC2) [10] = system: MRP2 (ABCC2); parameters: method as in PMID 18723475
OAT1 [11] = system: OAT1; parameters: method as in PMID 21088257
OAT2 = system: OAT2; parameters: method as in PMID 21088257
OAT3 [12] = system: OAT3; parameters: method as in PMID 21088257
OCT2 [13] = system: OCT2; parameters: method as in PMID 21088257, PMID 26976869; remark: listed apart in the source

| SMILES | Ki (rOATP1B2) [µM] | Ki (rOATP1A1) [µM] | inhibition of OAT2 [1] | inhibition of MRP2 (MRP2 (ABCC2) [2]) | inhibition of OAT1 (OAT1 [3]) | inhibition of OAT3 (OAT3 [4]) | inhibition of OCT2 (OCT2 [5]) | inhibition of OATP4C1 (OATP4C1) | IC50 (human OATP1B1) [µM] | IC50 (human OATP1B3) [µM] | IC50 (human OATP2B1 [6]) [µM] | Ki [7] [µM] | interpatient variability in area under the curve (AUC) [8] [%] | interpatient variability in trough plasma concentrations [8] [%] | transport by human OATP2B1 (human OATP2B1 [9]) | substrate of MRP2 (MRP2 (ABCC2) [10]) | transport by OAT1 (OAT1 [11]) | transport by OAT2 (OAT2) | substrate of OAT3 (OAT3 [12]) | substrate of OCT2 (OCT2 [13]) |
| --- | --- | --- | --- | --- | --- | --- | --- | --- | --- | --- | --- | --- | --- | --- | --- | --- | --- | --- | --- | --- |
| CO[C@H]1/C=C/O[C@@]2(C)Oc3c(C)c(O)c4c(O)c(c(/C=N/N5CCN(C)CC5)c(O)c4c3C2=O)NC(=O)/C(C)=C\C=C\[C@H](C)[C@H](O)[C@@H](C)[C@@H](O)[C@@H](C)[C@H](OC(C)=O)[C@@H]1C [rifampicin, Rifampicin] | 0.79 | 18 | inhibited neither | potent inhibitor | inhibitor | not | not inhibited | not an inhibitor | 1.9 ± 0.16 | 6.4 ± 0.5 | 91 ± 14.6 | > 100 | – | – | – | – | – | – | – | – |
| C#Cc1cccc(Nc2ncnc3cc(OCCOC)c(OCCOC)cc23)c1 [erlotinib, Erlotinib] | – | – | – | – | – | – | – | – | – | – | – | – | 51 | 64 | specifically transported | not a substrate | neither transported | neither transported | substrate | substrate |
